According to patent US10544146B2, “Bicyclic compounds and their use as antibacterial agents and β-lactamase inhibitors” (priority 2011, dated 2020):

Columns and labels:
Assay type in all cases: cell-based
[1] = tested on: K. pneumo JMI 2673; assay: MIC, antibacterial and synergistic activity; details: substance alone
[2] = tested on: E. coli JMI 10770; assay: MIC, antibacterial and synergistic activity; details: substance alone
[3] = tested on: K. pneumo JMI 4109; assay: MIC, antibacterial and synergistic activity; details: substance alone
[4] = tested on: K. pneumo JMI 2681; assay: MIC, antibacterial and synergistic activity; details: substance alone
[5] = tested on: K. pneumo JMI 4088; assay: MIC, antibacterial and synergistic activity; details: substance alone
[6] = tested on: E. coli JMI 10767; assay: MIC, antibacterial and synergistic activity; details: substance alone
Method: (§1) In the Tables 10-12, compounds of the present invention were tested in combination with various antibiotics against metallo β-lactamase producing bacteria.

[7] = tested on: P. aerug JMI 149; assay: MIC, antibacterial and synergistic activity; details: substance alone
Method: as §1

[8] = tested on: E. coli JMI 2671; assay: MIC, antibacterial and synergistic activity; details: substance alone
Method: as §1

[9] = tested on: A. baumanii JMI 2659; assay: MIC, antibacterial and synergistic activity; details: substance alone
Method: as §1

[10] = tested on: K. pneumo JMI 2699; assay: MIC, antibacterial and synergistic activity; details: substance alone
Method: as §1

[11] = tested on: K. pneumo JMI 2693; assay: MIC, antibacterial and synergistic activity; details: substance alone
Method: as §1

[12] = tested on: E. coli ATCC 25922; assay: MIC, antibacterial and synergistic activity
Method: as §1

[13] = tested on: E. coli JMI 2692; assay: MIC, antibacterial and synergistic activity; details: substance alone
Method: as §1

[14] = tested on: K. pneumo JMI 2697; assay: MIC, antibacterial and synergistic activity; details: substance alone
Method: as §1

[15] = tested on: E. cloacae JMI 36; assay: MIC, antibacterial and synergistic activity; details: substance alone
Method: as §1

[16] = tested on: P. aerug JMI 2686; assay: MIC, antibacterial and synergistic activity; details: substance alone
[17] = tested on: metallo β-lactamase producing bacteria; assay: MIC in combination with various antibiotics against metallo β-lactamase producing bacteria (Tables 10-12); details: substance alone
Method: as §1

[18] = tested on: E. coli JMI 4103; assay: MIC, antibacterial and synergistic activity; details: substance alone
[19] = tested on: K. pneumo JMI 2674; assay: MIC, antibacterial and synergistic activity; details: substance alone
[20] = tested on: E. coli JMI 10768; assay: MIC, antibacterial and synergistic activity; details: substance alone
[21] = tested on: E. coli JMI 2665; assay: MIC, antibacterial and synergistic activity; details: for MIC alone: substance alone
[22] = tested on: E. coli JMI 11103; assay: MIC, antibacterial and synergistic activity; details: substance alone
[23] = tested on: E. coli JMI 4080; assay: MIC, antibacterial and synergistic activity; details: substance alone
[24] = tested on: K. pneumo JMI 4106; assay: MIC, antibacterial and synergistic activity; details: K. pneumo JMI 4106, KPC-3, TEM-1, SHV-12, SHV-141; substance alone
[25] = K. pneumo JMI 2673, CTX-M14 (ESBL)
[26] = K. pneumo JMI 4109, SHV-1, SHV-12
[27] = K. pneumo JMI 2681, Oxa-48 (Cpase)
[28] = K. pneumo JMI 4088, KPC-3 (Cpase)
[29] = K. pneumo JMI 2699, VIM-1, CTX-M3
[30] = K. pneumo JMI 2693, NDM-1 (Cpase)
[31] = K. pneumo JMI 2697, IMP-4 (Cpase)
[32] = P. aerug JMI 2686, KPC-2 (Cpase)
[33] = K. pneumo JMI 2674, CTX-M15 (ESBL)

C[C@@H](O)[C@H]1C(=O)N2C(C(=O)O)=C(S[C@@H]3CN[C@H](C(=O)N(C)C)C3)[C@H](C)[C@H]12 [Meropenem, meropenem]
MIC alone [1, 25]: ≤1 µg/mL | MIC alone ([1]; K. pneumo JMI 2673, enzyme CTX-M14 (ESBL)): ≤1 µg/mL | MIC alone ([2]; E. coli JMI 10770, CTX-M15 (Hyper ESBL)): ≤1 µg/mL | MIC alone ([2]; E. coli JMI 10770, enzyme CTX-M15 (Hyper ESBL)): ≤1 µg/mL | MIC alone [3, 26]: ≤1 µg/mL | MIC alone ([3]; K. pneumo JMI 4109, enzyme SHV-1, SHV-12): ≤1 µg/mL | MIC alone [4, 27]: 64 µg/mL | MIC alone ([4]; K. pneumo JMI 2681, enzyme Oxa-48 (Cpase)): 64 µg/mL | MIC alone [5, 28]: 512 µg/mL | MIC alone ([5]; K. pneumo JMI 4088, enzyme KPC-3 (Cpase)): 512 µg/mL | MIC alone ([6]; E. coli JMI 10767, Wt): ≤1 µg/mL | MIC alone ([6]; E. coli JMI 10767, enzyme Wt): ≤1 µg/mL | MIC alone ([7]; P. aerug JMI 149, Bla+++D+): 4 µg/mL | MIC alone ([7]; P. aerug JMI 149, enzyme Bla+++D+): 4 µg/mL | MIC alone ([8]; E. coli JMI 2671, VIM-19 (Cpase)): 64 µg/mL | MIC alone ([8]; E. coli JMI 2671, enzyme VIM-19 (Cpase)): 64 µg/mL | MIC alone ([9]; A. baumanii JMI 2659, Ges-14 (Cpase)): 64 µg/mL | MIC alone ([9]; A. baumanii JMI 2659, enzyme Ges-14 (Cpase)): 64 µg/mL | MIC alone [10, 29]: 32 µg/mL | MIC alone ([10]; K. pneumo JMI 2699, enzyme VIM-1, CTX-M3): 32 µg/mL | MIC alone [11, 30]: 8 µg/mL | MIC alone ([11]; K. pneumo JMI 2693, enzyme NDM-1 (Cpase)): 8 µg/mL | MIC alone ([12]; E. coli ATCC 25922, enzyme Wt; substance alone): 0.06 µg/mL | MIC alone ([12]; E. coli ATCC 25922; enzyme Wt; substance alone): 0.06 µg/mL | MIC alone ([13]; E. coli JMI 2692, NDM-1, TEM-1, CTX-M-15): 256 µg/mL | MIC alone ([13]; E. coli JMI 2692, enzyme NDM-1, TEM-1, CTX-M-15): 256 µg/mL | MIC alone [14, 31]: 64 µg/mL | MIC alone ([14]; K. pneumo JMI 2697, enzyme IMP-4 (Cpase)): 64 µg/mL | MIC alone ([15]; E. cloacae JMI 36, P99): ≤1 µg/mL | MIC alone ([15]; E. cloacae JMI 36, enzyme P99): ≤1 µg/mL | MIC alone [16, 32]: 512 µg/mL | MIC alone ([16]; P. aerug JMI 2686, enzyme KPC-2 (Cpase)): 512 µg/mL | MIC alone ([17]; Citrobacter freundii isolate 49469, NDM-1): 16 µg/mL | MIC alone ([17]; Enterobacter aerogenes isolate 8397, VIM-1): 64 µg/mL | MIC alone ([17]; Enterobacter aerogenes isolate 47683, VIM-12): 8 µg/mL | MIC alone ([17]; Enterobacter cloacae isolate 4, VIM-6): 2 µg/mL | MIC alone ([17]; Enterobacter cloacae isolate 10, IMP-26): 16 µg/mL | MIC alone ([17]; Enterobacter cloacae isolate 25, IMP-4): 16 µg/mL | MIC alone ([17]; Enterobacter cloacae isolate 1068, VIM-2): 2 µg/mL | MIC alone ([17]; Enterobacter cloacae isolate 1471, VIM-1): 2 µg/mL | MIC alone ([17]; Enterobacter cloacae isolate 1874, IMP-21): 4 µg/mL | MIC alone ([17]; Enterobacter cloacae isolate 3686, IMP-1): 8 µg/mL | MIC alone ([17]; Enterobacter cloacae isolate 53477, NDM-1): 32 µg/mL | MIC alone ([17]; Escherichia coli isolate 13, IMP-1): 4 µg/mL | MIC alone ([17]; Escherichia coli isolate 17, NDM-1): 32 µg/mL | MIC alone ([17]; Escherichia coli isolate 49, NDM-1): 8 µg/mL | MIC alone ([17]; Escherichia coli isolate 53749, NDM-1): 64 µg/mL | MIC alone ([17]; Klebsiella oxytoca isolate 24825, IMP-26): 32 µg/mL | MIC alone ([17]; Klebsiella oxytoca isolate 31141, VIM-23): 2 µg/mL | MIC alone ([17]; Klebsiella pneumoniae isolate 16, VIM-5): 8 µg/mL | MIC alone ([17]; Klebsiella pneumoniae isolate 38, NDM-1): 32 µg/mL | MIC alone ([17]; Providencia stuartii isolate 26582, VIM-1): 1 µg/mL | MIC alone ([17]; Serratia marcescens isolate 35, IMP-4): 8 µg/mL | MIC alone ([17]; Serratia marcescens isolate 36098, IMP-19): 8 µg/mL | MIC alone ([18]; E. coli JMI 4103, KPC-2, Tem-1, CMY-Type): 64 µg/mL | MIC alone ([18]; E. coli JMI 4103, enzyme KPC-2, Tem-1, CMY-Type): 64 µg/mL | MIC alone [19, 33]: ≤1 µg/mL | MIC alone ([19]; K. pneumo JMI 2674, enzyme CTX-M15 (ESBL)): ≤1 µg/mL | MIC alone ([20]; E. coli JMI 10768, CTX-M15 (Weak ESBL)): ≤1 µg/mL | MIC alone ([20]; E. coli JMI 10768, enzyme CTX-M15 (Weak ESBL)): ≤1 µg/mL | MIC alone ([21]; E. coli JMI 2665, CMY-2 (Plasmid Cpase)): ≤1 µg/mL | MIC alone ([21]; E. coli JMI 2665, enzyme CMY-2 (Plasmid Cpase)): ≤1 µg/mL | MIC alone ([22]; E. coli JMI 11103, CTX-M15 (Intermediate ESBL)): ≤1 µg/mL | MIC alone ([22]; E. coli JMI 11103, enzyme CTX-M15 (Intermediate ESBL)): ≤1 µg/mL | MIC alone ([23]; E. coli JMI 4080, Tem-10): ≤1 µg/mL | MIC alone ([23]; E. coli JMI 4080, enzyme Tem-10): ≤1 µg/mL

O=C(NNC(=O)[C@H]1CC[C@H]2CN1C(=O)N2OS(=O)(=O)O)C1CC1 (stereo in doubt) [Ex. 47, (2R,5S)-N′-(cyclopropylcarbonyl)-7-oxo-6-(sulfooxy)-1,6-diazabicyclo[3.2.1]octane-2-carbohydrazide]
MIC [1, 25]: > 16 µg/mL | MIC ([2]; Escherichia coli, JMI10770, E. coli JMI 10770, CTX-M15 (Hyper ESBL)): 8 µg/mL | MIC [3, 26]: 2 µg/mL | MIC [4, 27]: > 16 µg/mL | MIC [5, 28]: > 16 µg/mL | MIC ([6]; Escherichia coli, JMI10767, E. coli JMI 10767, Wt): 8 µg/mL | MIC ([7]; P. aerug JMI 149, Bla+++D+): > 16 µg/mL | MIC ([8]; Escherichia coli, JMI2671, E. coli JMI 2671, VIM-19 (Cpase)): 8 µg/mL | MIC ([9]; Acinetobacter baumannii, JMI2659, A. baumanii JMI 2659, Ges-14 (Cpase)): > 16 µg/mL | MIC [10, 29]: 16 µg/mL | MIC [11, 30]: > 16 µg/mL | MIC ([12]; Escherichia coli, ATCC25922, E. coli ATCC 25922, enzyme Wt; substance alone): > 16 µg/mL | MIC ([13]; Escherichia coli, JMI2692, E. coli JMI 2692, NDM-1, TEM-1, CTX-M-15): 8 µg/mL | MIC [14, 31]: > 16 µg/mL | MIC ([15]; Enterobacter cloacae, JMI36, E. cloacae JMI 36, P99): > 16 µg/mL | MIC [16, 32]: > 16 µg/mL | MIC [24]: 16 µg/mL | MIC ([18]; Escherichia coli, JMI4103, E. coli JMI 4103, KPC-2, Tem-1, CMY-Type): 2 µg/mL | MIC [19, 33]: > 16 µg/mL | MIC ([20]; Escherichia coli, JMI10768, E. coli JMI 10768, CTX-M15 (Weak ESBL)): 16 µg/mL | MIC ([21]; Escherichia coli, JMI2665, read-out: MIC alone): 2 µg/mL | MIC ([22]; Escherichia coli, JMI11103, E. coli JMI 11103, CTX-M15 (Intermediate ESBL)): 16 µg/mL | MIC ([23]; Escherichia coli, JMI4080, E. coli JMI 4080, Tem-10): 4 µg/mL
